Laboratory results: patent publication US8592410B2, “Cyclic inhibitors of 11BETA-hydroxysteroid dehydrogenase 1” (Vitae Pharmaceuticals, Inc., priority 2008, dated 2013)
Where two headings read alike, the source gives them in different places. Blank lines part the entries; values can stand above or below the compound they belong to.

Assays:
[1] = biological target: human recombinant cytochrome P450 3A4 (Homo sapiens (Human), UniProt P08684); assay: Biological Test Example 6: CYP3A4 Inhibition; type: in vitro ADME
Chain of human recombinant cytochrome P450 3A4 (P08684 whole entry): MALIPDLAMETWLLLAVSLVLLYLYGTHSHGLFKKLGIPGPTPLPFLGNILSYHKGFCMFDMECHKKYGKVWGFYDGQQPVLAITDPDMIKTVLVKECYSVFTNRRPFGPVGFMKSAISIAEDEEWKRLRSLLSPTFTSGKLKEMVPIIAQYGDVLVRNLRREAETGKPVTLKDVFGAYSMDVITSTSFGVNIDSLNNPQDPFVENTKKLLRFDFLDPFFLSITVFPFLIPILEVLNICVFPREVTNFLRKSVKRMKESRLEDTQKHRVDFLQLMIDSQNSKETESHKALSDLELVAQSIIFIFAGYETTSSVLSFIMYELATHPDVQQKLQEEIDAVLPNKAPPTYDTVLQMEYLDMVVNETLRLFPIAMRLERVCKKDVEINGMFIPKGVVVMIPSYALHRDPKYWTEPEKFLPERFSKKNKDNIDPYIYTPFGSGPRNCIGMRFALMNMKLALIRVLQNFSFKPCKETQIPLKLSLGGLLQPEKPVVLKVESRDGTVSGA

[2] = biological target: T1, human recombinant cytochrome P450 2C19 (Homo sapiens (Human), UniProt P33261); assay: Biological Test Example 8: CYP2C19 Inhibition; conditions: read-out: Biological Test Example 8 CYP2C19, IC50
T1 sequence (P33261 whole entry): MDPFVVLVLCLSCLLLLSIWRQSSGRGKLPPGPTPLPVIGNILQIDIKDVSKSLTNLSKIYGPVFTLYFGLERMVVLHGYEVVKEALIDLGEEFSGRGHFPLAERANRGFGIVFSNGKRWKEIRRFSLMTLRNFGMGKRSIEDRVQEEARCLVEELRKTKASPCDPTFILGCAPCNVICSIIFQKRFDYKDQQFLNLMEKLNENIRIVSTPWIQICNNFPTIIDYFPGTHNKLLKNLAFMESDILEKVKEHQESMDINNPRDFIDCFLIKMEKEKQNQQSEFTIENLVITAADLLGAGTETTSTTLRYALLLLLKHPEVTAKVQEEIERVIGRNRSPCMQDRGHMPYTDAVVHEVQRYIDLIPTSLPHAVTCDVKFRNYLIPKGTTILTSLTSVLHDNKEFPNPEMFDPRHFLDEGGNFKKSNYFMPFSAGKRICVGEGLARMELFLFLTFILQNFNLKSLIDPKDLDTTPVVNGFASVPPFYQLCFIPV

[3] = biological target: T2, human recombinant cytochrome P450 2C9 (Homo sapiens (Human), UniProt P11712); assay: Biological Test Example 7: CYP2C9 Inhibition (Naproxen O-demethylation); conditions: read-out: Biological Test Example 7 CYP2C9, IC50; [O-methyl-14C]-Naproxen substrate
T2 sequence (P11712 whole entry): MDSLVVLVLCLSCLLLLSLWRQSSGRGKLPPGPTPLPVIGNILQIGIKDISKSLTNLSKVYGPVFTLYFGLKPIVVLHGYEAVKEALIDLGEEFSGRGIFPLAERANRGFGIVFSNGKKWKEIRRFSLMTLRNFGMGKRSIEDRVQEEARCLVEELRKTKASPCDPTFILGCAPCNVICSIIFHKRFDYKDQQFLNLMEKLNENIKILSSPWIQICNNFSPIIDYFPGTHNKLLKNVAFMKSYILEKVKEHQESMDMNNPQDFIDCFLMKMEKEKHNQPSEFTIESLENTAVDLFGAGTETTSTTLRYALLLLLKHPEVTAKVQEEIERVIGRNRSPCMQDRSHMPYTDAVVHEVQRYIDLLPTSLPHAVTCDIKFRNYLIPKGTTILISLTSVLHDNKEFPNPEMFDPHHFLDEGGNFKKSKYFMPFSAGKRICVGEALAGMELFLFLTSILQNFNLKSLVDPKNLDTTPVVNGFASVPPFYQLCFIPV

CYP2C9 [4] = biological target: T3, CYP2C9 (Homo sapiens (Human), UniProt P11712); assay: Biological Test Example 9: CYP2C9 Inhibition (Invitrogen kit, OOMR fluorogenic substrate); conditions: read-out: Biological Test Example 9 CYP2C9 IC50
T3 sequence (P11712 whole entry): as above

[5] = biological target: T2, human recombinant cytochrome P450 2C9
[6] = biological target: T1, human recombinant cytochrome P450 2C19
CYP2C9 [7] = biological target: T3, CYP2C9; conditions: pH 8
[8] = Biological Test Example 5: Fraction Unbound in Human Plasma (equilibrium dialysis); type: in vitro ADME
CYP2C9 [9] = biological target: T3, CYP2C9; assay: in vitro
[10] = biological target: T1, human recombinant cytochrome P450 2C19; assay: biochemical
[11] = biological target: 11β-HSD1 (human liver microsomes) (Homo sapiens (Human), UniProt P28845); conditions: read-out: Average % control inhibition at 100 nM
Chain of 11β-HSD1 (human liver microsomes) (P28845 whole entry): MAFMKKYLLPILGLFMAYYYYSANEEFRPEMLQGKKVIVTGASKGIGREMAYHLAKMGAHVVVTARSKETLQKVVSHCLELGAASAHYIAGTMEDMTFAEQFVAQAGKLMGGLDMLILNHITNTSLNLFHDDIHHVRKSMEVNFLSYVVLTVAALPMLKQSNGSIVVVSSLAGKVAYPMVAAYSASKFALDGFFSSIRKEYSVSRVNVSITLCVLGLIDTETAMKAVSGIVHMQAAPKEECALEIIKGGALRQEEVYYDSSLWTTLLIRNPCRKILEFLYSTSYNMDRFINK

[12] = read-out: Biological Test Example 6 CYP3A4, IC50

Compound: C[C@@H](c1ccc(Br)cc1)N1CC[C@](CC(C)(C)O)(c2ccccc2)OC1=O [Comparator Compound 15, reference compound]
IC50 [1, 12]: 3.1 µM
IC50 [5]: 7.7 µM
IC50 [6]: < 0.4 µM
IC50 (CYP2C9 [7]): 9.5 µM

Compound: C[C@@H](c1ccc(-c2ccc(=O)n(C)n2)cc1)N1CC[C@](CC(C)(C)O)(c2ccccc2)OC1=O [Example 12, (S)-6-(2-hydroxy-2-methylpropyl)-3-((S)-1-(4-(1-methyl-6-oxo-1,6-dihydropyridazin-3-yl)phenyl)ethyl)-6-phenyl-1,3-oxazinan-2-one]
fraction unbound [8]: 0.022
IC50 (CYP2C9 [9]): > 50 µM
IC50 [10]: > 50 µM

Compound: CCn1nc(-c2ccc([C@H](C)N3CC[C@](CC(C)(C)O)(c4ccccc4)OC3=O)cc2)ccc1=O [Example 14, (S)-3-((S)-1-(4-(1-ethyl-6-oxo-1,6-dihydropyridazin-3-yl)phenyl)ethyl)-6-(2-hydroxy-2-methylpropyl)-6-phenyl-1,3-oxazinan-2-one]
IC50 ([1]; human): 32.7 µM
IC50 [5]: > 50 µM
IC50 [6]: 46.3 µM

Compound: C[C@@H](c1ccc(-c2ccc(=O)n(C)n2)cc1)N1CC[C@](CCCO)(c2ccc(F)cc2)OC1=O [Example 10, (R)-6-(4-fluorophenyl)-6-(3-hydroxypropyl)-3-((S)-1-(4-(1-methyl-6-oxo-1,6-dihydropyridazin-3-yl)phenyl)ethyl)-1,3-oxazinan-2-one]
IC50 (CYP2C9 [7]): 14.2 µM

Compound: Cc1cc(=O)n(C)nc1-c1ccc([C@H](C)N2CC[C@](CC(C)(C)O)(c3ccccc3)OC2=O)cc1 [Example 18*, 3-{(S)-1-[4-(1,4-Dimethyl-6-oxo-1,6-dihydro-pyridazin-3-yl)-phenyl]-ethyl}-(S)-6-(2-hydroxy-2-methyl-propyl)-6-phenyl-[1,3]oxazinan-2-one]
IC50 ([1]; human): > 50 µM
IC50 [2]: > 50 µM
IC50 [3]: > 50 µM
inhibition at 0.1 µM [11]: 63%

Compound: C[C@@H](c1ccc(-c2ccc(=O)n(CC(F)(F)F)n2)cc1)N1CC[C@](CC(C)(C)O)(c2ccccc2)OC1=O [Example 16, (S)-6-(2-hydroxy-2-methylpropyl)-3-((S)-1-(4-(6-oxo-1-(2,2,2-trifluoroethyl)-1,6-dihydropyridazin-3-yl)phenyl)ethyl)-6-phenyl-1,3-oxazinan-2-one]
IC50 [1, 12]: 15.6 µM
IC50 [5]: 13 µM
IC50 [6]: 18.9 µM

Compound: C[C@@H](c1ccc(OC(F)F)cc1)N1CC[C@](CCO)(c2ccc(F)cc2)OC1=O [Comparator Compound 14, reference compound]
IC50 [1, 12]: 19.7 µM
IC50 [5]: 25.9 µM
IC50 [6]: 6.4 µM
IC50 (CYP2C9 [7]): 24.6 µM

Compound: C[C@@H](c1ccc(-c2ccc(=O)n(C)n2)cc1)N1CC[C@](CC(C)(C)O)(c2ccc(F)cc2)OC1=O [Example 13, (S)-6-(4-fluorophenyl)-6-(2-hydroxy-2-methylpropyl)-3-((S)-1-(4-(1-methyl-6-oxo-1,6-dihydropyridazin-3-yl)phenyl)ethyl)-1,3-oxazinan-2-one]
IC50 [1, 12]: > 50 µM
IC50 [5]: > 50 µM
IC50 [6]: > 50 µM

Compound: C[C@@H](c1ccc(-c2ccc(=O)n(CC3CC3)n2)cc1)N1CC[C@](CC(C)(C)O)(c2ccccc2)OC1=O [Example 19*, 3-{(S)-1-[4-(1-Cyclopropylmethyl-6-oxo-1,6-dihydro-pyridazin-3-yl)-phenyl]-ethyl}-(S)-6-(2-hydroxy-2-methyl-propyl)-6-phenyl-[1,3]oxazinan-2-one]
IC50 ([1]; human): 5.7 µM
IC50 [6]: 5.4 µM

Now from value to compound:

IC50 [1, 12]: 4.4 µM
IC50 [2]: 8.6 µM
IC50 [3]: 2.3 µM
IC50 (CYP2C9 [4]): 5 µM
Compound: C[C@@H](c1ccc(-c2ccc(F)cc2F)cc1)N1CC[C@](CC(C)(C)O)(c2ccc(F)cc2)OC1=O [Comparator Compound 6, reference compound]

IC50 (CYP2C9 [4]): 1.4 µM
Compound: O=C1OC(CCO)(c2ccccc2F)CCN1c1cccc(-c2ccc(F)cc2F)n1 (stereo not drawn) [Comparator Compound 2]

IC50 (CYP2C9 [4]): 5.1 µM
Compound: O=C1O[C@@](CCO)(c2ccccc2)CCN1c1cccc(-c2ccc(F)cc2)n1 [Comparator Compound 4]

IC50 [1, 12]: 4.4 µM
IC50 [2]: < 0.4 µM
IC50 [3]: 5.6 µM
IC50 (CYP2C9 [4]): 7.3 µM
Compound: C[C@@H](c1ccc(Br)cc1)N1CC[C@](CC(C)(C)O)(c2ccc(F)cc2)OC1=O [Comparator Compound 13, reference compound]

IC50 [1, 12]: 31 µM
IC50 [2]: > 50 µM
IC50 [3]: > 50 µM
Compound: Cc1cc(-c2ccc([C@H](C)N3CC[C@](CC(C)(C)O)(c4ccccc4)OC3=O)cc2)nn(C)c1=O [Example 17*, 3-{(S)-1-[4-(1,5-Dimethyl-6-oxo-1,6-dihydro-pyridazin-3-yl)-phenyl]-ethyl}-(S)-6-(2-hydroxy-2-methyl-propyl)-6-phenyl-[1,3]oxazinan-2-one]

fraction unbound [8]: 0.007
IC50 [1, 12]: 14.1 µM
Compound: C[C@@H](c1ccc(-c2ccc(F)cc2)cc1)N1CC[C@](CCC(N)=O)(c2ccccc2)OC1=O [Comparator Compound 11, reference compound]

IC50 (CYP2C9 [4]): 27 µM
Compound: O=C1O[C@@](CCO)(c2ccccc2)CCN1c1cccc(-c2ccc(F)cc2F)c1 [Comparator Compound 1]

IC50 [1, 12]: 15.7 µM
IC50 [2]: 13.1 µM
IC50 [3]: 28.8 µM
Compound: C[C@@H](c1ccc(-c2ccc(=O)n(C3CC3)n2)cc1)N1CC[C@](CC(C)(C)O)(c2ccccc2)OC1=O [Example 20*, 3-{(S)-1-[4-(1-Cyclopropyl-6-oxo-1,6-dihydro-pyridazin-3-yl)-phenyl]-ethyl}-(S)-6-(2-hydroxy-2-methyl-propyl)-6-phenyl-[1,3]oxazinan-2-one]

fraction unbound [8]: 0.004
IC50 [1, 12]: 4.9 µM
Compound: C[C@@H](c1ccc(-c2ccc(F)cc2)cc1)N1CC[C@](CC(C)(C)O)(c2ccccc2)OC1=O [Comparator Compound 12, reference compound]
